US20050074819A1, “Screening method of drug for treatment of neuropathic pain” (JAPAN HEALTH SCIENCES FOUNDATION, priority 2003, published 2005)

Tests used:
[1] = target: T1, P2X4Rs (Rattus norvegicus, UniProt P51577); experiment: Intracellular Ca2+ imaging (fura-2) of ATP-evoked response in primary cultured microglia; format: cell-based; conditions: for ATP-evoked increase in 340/360 ratio (fura-2): 10 min before and during ATP (50 μM, 10 s)
T1 construct: mixed glial culture was prepared from neonatal Wistar rats; endogenous in cells; host or cells: primary cultured microglia from neonatal Wistar rats
T1 sequence (P51577 1-388): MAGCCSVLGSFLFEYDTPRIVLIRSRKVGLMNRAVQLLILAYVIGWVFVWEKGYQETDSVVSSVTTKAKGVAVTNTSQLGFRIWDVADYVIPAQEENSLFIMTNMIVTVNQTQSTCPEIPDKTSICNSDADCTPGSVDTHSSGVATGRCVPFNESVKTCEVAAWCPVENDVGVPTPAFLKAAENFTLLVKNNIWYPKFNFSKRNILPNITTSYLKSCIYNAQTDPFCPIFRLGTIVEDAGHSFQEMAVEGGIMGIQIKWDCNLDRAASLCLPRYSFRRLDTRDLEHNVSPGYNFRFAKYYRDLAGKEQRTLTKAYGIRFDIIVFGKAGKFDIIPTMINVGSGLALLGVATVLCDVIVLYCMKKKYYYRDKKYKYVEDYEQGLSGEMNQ
Source text: As P2X4Rs are reported to be highly permeable to Ca^2+ (Khakh, B. S. et al. International union of pharmacology. XXIV. Current status of the nomenclature and properties of P2X receptors and their subunits. Pharmacol Rev 53, 107-118, 2001), we investigated whether the P2X4Rs on these microglia were functional by applying the agonist ATP and monitoring the level of intracellular Ca^2+ ([Ca^2+]i) in individual cells using the Ca^2+-sensitive fluorescent dye fura-2.
The detailed procedures are as follows. Rat primary cultured microglia were prepared according to the method described previously (Nakajima, K. et al. Identification of elastase as a secretory protease from cultured rat microglia. J Neurochem 58, 1401-1408, 1992). In brief, mixed glial culture was prepared from neonatal Wistar rats and maintained for 10-16 days in DMEM with 10% fetal bovine serum. Microglia were obtained as floating cells over the mixed glial culture. The floating cells were collected by a gentle shake and transferred to appropriate dishes or glasses, and then the microglia attached to them were used for RT-PCR, intracellular Ca^2+ imaging, immunocytochemistry.

[2] = system: nociceptive behaviours; conditions: intrathecal 30 or 100 nmol; cited from earlier work
[3] = system: male Wistar rats with L5 spinal nerve injury; experiment: Tactile allodynia after L5 spinal nerve injury, von Frey paw withdrawal threshold, intrathecal injection; format: in vivo, rat; conditions: for paw withdrawal threshold 45 min after injection: ipsilateral hindpaw
Method: (§1) We used the spinal nerve injury model (Kim, S. H. & Chung, J. M. An experimental model for peripheral neuropathy produced by segmental spinal nerve ligation in the rat. Pain 50, 355-363. (1992)) with some modifications; a unilateral L5 spinal nerve of male Wistar rats was tightly ligated and cut just distal to the ligature. The mechanical allodynia was assessed in naive and nerve-injured rats using calibrated von Frey filaments (0.4-15.1 g). Rats were injected intrathecally with P2XR antagonists, TNP-ATP and PPADS (Sigma-RBI), and antisense and mismatch ODN. For the experiments in FIG. 5, the cultured microglia (see Supplementary Information 1) that had been pre-incubated with or without ATP (50 μM) were injected intrathecally in normal rats. Full details of experimental methods are as follows.
(§2) A unilateral L5 spinal nerve of male Wistar rats was tightly ligated and cut just distal to the ligature. To assess the mechanical allodynia, the calibrated von Frey filaments (0.4-15.1 g) were applied to the plantar surface of the hindpaw from below the mesh floor. The 50% paw withdrawal threshold was determined using the up-down method (Chaplan, S. R., Bach, F. W., Pogrel, J. W., Chung, J. M. & Yaksh, T. L. Quantitative assessment of tactile allodynia in the rat paw. J Neurosci Methods 53, 55-63, 1994). Rats were implanted with a PE-10 polyethylene tube to the lumber enlargement (Yaksh, T. L., Jessell, T. M., Gamse, R., Mudge, A. W. & Leeman, S. E. Intrathecal morphine inhibits substance P release from mammalian spinal cord in vivo. Nature 286, 155-157, 1980) for intrathecal injection of P2XR antagonists [2′,3′-O-(2,4,6-trinitrophenyl)adenosine 5′-triphosphate (TNP-ATP) (Sigma-RBI) and pyridoxalphosphate-6-azophenyl-2′,4′-disulphonic acid (PPADS) (Sigma-RBI)], P2X4R antisense or mismatch ODN. We confirmed that PPADS and TNP-ATP used in the present study show biological activity to inhibit effects of α,β-methylene ATP in vitro and in vivo. The 16-base antisense ODN endcapped with phosphorothioate linkages were designed according to the primary sequence of the rat P2X4R cDNA (X87763). The sequence of the P2X4R antisense and mismatch ODN was 5′-CAGCCCGCCATGGCTC-3′ (SEQ ID NO: 3) and 5′-ACCGCCGCCAGTGCCT-3′ (SEQ ID NO: 4), respectively. The mismatch ODN served as a control. Rats were injected intrathecally with antisense ODN (5 nmol 10 μl^−1) and mismatch ODN (5 nmol 10 μl^−1) using a 25-μl Hamilton syringe with 28-gauge needle once a day from day 0 (immediately after nerve injury) to day 6. On day 7, paw withdrawal threshold of antisense ODN- and mismatch ODN-treated rats were tested. After the test, to quantify the levels of P2X4R protein in the spinal cord in both groups using Western blot analysis, the membrane fraction from the ipsilateral spinal cord segments L4-L6 was prepared. For the experiments in which cultured microglia were administered intrathecally, the cultured microglia were pre-incubated with ATP (50 μM) or PBS for 1 hr at 37° C. immediately prior to administration. Microglia with their supernatant were injected intrathecally in normal rats and paw withdrawal threshold was tested 1, 3 and 5 hr later. TNP-ATP (10 μM) was preincubated with microglia starting 10 min prior to ATP application.

[4] = system: effects of α,β-methylene ATP; experiment: Check of biological activity against effects of α,β-methylene ATP in vitro and in vivo
Method: A unilateral L5 spinal nerve of male Wistar rats was tightly ligated and cut just distal to the ligature. To assess the mechanical allodynia, the calibrated von Frey filaments (0.4-15.1 g) were applied to the plantar surface of the hindpaw from below the mesh floor. The 50% paw withdrawal threshold was determined using the up-down method (Chaplan, S. R., Bach, F. W., Pogrel, J. W., Chung, J. M. & Yaksh, T. L. Quantitative assessment of tactile allodynia in the rat paw. J Neurosci Methods 53, 55-63, 1994). Rats were implanted with a PE-10 polyethylene tube to the lumber enlargement (Yaksh, T. L., Jessell, T. M., Gamse, R., Mudge, A. W. & Leeman, S. E. Intrathecal morphine inhibits substance P release from mammalian spinal cord in vivo. Nature 286, 155-157, 1980) for intrathecal injection of P2XR antagonists [2′,3′-O-(2,4,6-trinitrophenyl)adenosine 5′-triphosphate (TNP-ATP) (Sigma-RBI) and pyridoxalphosphate-6-azophenyl-2′,4′-disulphonic acid (PPADS) (Sigma-RBI)], P2X4R antisense or mismatch ODN. We confirmed that PPADS and TNP-ATP used in the present study show biological activity to inhibit effects of α,β-methylene ATP in vitro and in vivo. […] After the test, to quantify the levels of P2X4R protein in the spinal cord in both groups using Western blot analysis, the membrane fraction from the ipsilateral spinal cord segments L4-L6 was prepared. […]

[5] = system: rat model of postoperative pain; conditions: administration at the incision area, effective only before surgical operation; cited from earlier work
[6] = system: normal rats; experiment: Tactile allodynia in normal rats after intrathecal administration of ATP-stimulated cultured microglia; format: in vivo, rat
Method: as §1
as §2, with “On day 7, paw withdrawal threshold of antisense ODN- and mismatch ODN-treated rats were tested.” left out, “For the experiments in which cultured microglia were administered intrathecally, the cultured microglia were pre-incubated with ATP (50 μM) or PBS for 1 hr at 37° C. immediately prior to administration. Microglia with their supernatant were injected intrathecally in normal rats and paw withdrawal threshold was tested 1, 3 and 5 hr later. TNP-ATP (10 μM) was preincubated with microglia starting 10 min prior to ATP application.” left out

[7] = system: microglia in the dorsal horn; experiment: Number of microglia and OX42 immunofluorescence in dorsal horn after ODN treatment; format: in vivo, rat; conditions: 5 nmol intrathecal once a day for 7 days
Source text: (§3) Transverse L5 spinal cord sections (30 μm) were cut and processed for immunohistochemistry using P2X4R antibody (Alomone). Markers of microglia, OX42 (Chemicon) and iba1 (gifted from S. Kohsaka); astrocytes, GFAP (Boehringer Mannheim); spinal cord neurones, NeuN (Chemicon) and MAP2 (Chemicon) were used to identify the type of P2X4R-positive cells. To assess immunofluorescence staining of cells quantitatively, we measured the immunofluorescence intensity of the P2X4R or OX42 as the average pixel intensity within each cell. Full details of experimental methods are as follows.
(§4) Transverse L5 spinal cord sections (30 μm) were incubated for 2 hr at room temperature in a blocking solution (3% normal goat serum) and then incubated for 48 hr at 4° C. in the primary antibody for P2X4R (anti-P2X4 receptor, 1:500, Alomone). […] The spinal cord sections were analysed using a MicroRadiance Confocal Imaging System (Bio-Rad) and an Olympus IX70 microscope equipped for epifluorescence. […] Microglia, as identified by OX42 immunofluorescence were outlined, and the immunofluorescence intensity (using a 9-bit scale) of the P2X4R or OX42 was determined as the average pixel intensity within each cell. Background fluorescence intensity was determined and was subtracted from the value obtained for microglia.

[8] = system: P2X4R protein; experiment: Western blot of P2X4R protein in spinal cord membrane fraction after intrathecal ODN treatment; format: in vivo, rat; conditions: 5 nmol intrathecal once a day for 7 days, immunoblot
Method: A unilateral L5 spinal nerve of male Wistar rats was tightly ligated and cut just distal to the ligature. To assess the mechanical allodynia, the calibrated von Frey filaments (0.4-15.1 g) were applied to the plantar surface of the hindpaw from below the mesh floor. The 50% paw withdrawal threshold was determined using the up-down method (Chaplan, S. R., Bach, F. W., Pogrel, J. W., Chung, J. M. & Yaksh, T. L. Quantitative assessment of tactile allodynia in the rat paw. J Neurosci Methods 53, 55-63, 1994). […] After the test, to quantify the levels of P2X4R protein in the spinal cord in both groups using Western blot analysis, the membrane fraction from the ipsilateral spinal cord segments L4-L6 was prepared. […]
The membrane fraction from spinal cord segments L4-L6 ipsilateral or contralateral to the nerve injury was used. […] The blots were detected using a chemiluminescence method (ECL system; Amersham) and exposed to autoradiography films (Hyperfilm-ECL; Amersham).

[9] = system: P2X4R protein; experiment: Immunofluorescence intensity of P2X4R protein in individual dorsal horn microglia after ODN treatment; format: in vivo, rat; conditions: 5 nmol intrathecal once a day for 7 days
Source text: as §3, §4

[10] = 30 nmol intrathecal 5 hr after ATP-stimulated microglia
[11] = 5 nmol intrathecal once a day for 7 days, tested day 7

## CCOc1ccc(Nc2ccc(/C(=C3C=C/C(=[N+](/CC)Cc4cccc(S(=O)(=O)[O-])c4)C=C/3C)c3ccc(N(CC)Cc4cccc(S(=O)(=O)[O-])c4)cc3C)cc2)cc1.[Na+] [brilliant blue G]
[1]; 100 nM
  ATP-evoked increase in 340/360 ratio (fura-2): not altered

## Cc1nc(N=Nc2ccc(S(=O)(=O)O)cc2S(=O)(=O)O)c(COP(=O)(O)O)c(C=O)c1O [PPADS, Pyridoxalphosphate-6-azophenyl-2′,4′-disulphonic acid]
[2]
  nociceptive behaviours (intrathecal α,β-methylene ATP, second phase of formalin test, bee venom): suppress
[3]; day 7, 30 or 100 nmol intrathecal
  effect on paw withdrawal threshold: no effect
[3]; day 14, 30 or 100 nmol intrathecal
  effect on paw withdrawal threshold: no effect
[1]; 10 μM
  ATP-evoked increase in 340/360 ratio (fura-2): unaffected
[4]
  biological activity on effects of α,β-methylene ATP: inhibit
[5]
  allodynia in a rat model of postoperative pain: suppressed allodynia

## 2′,3′-O-(2,4,6-Trinitrophenyl) Adenosine 5′-Triphosphate [TNP-ATP]
[3]; 30 nmol intrathecal, 45 min after injection
  paw withdrawal threshold on the side contralateral to the nerve injury: 14.3 ± 0.8 g
[3]; 30 nmol intrathecal, nerve-injured rats
  time of peak increase in paw withdrawal threshold after injection: about 45 min
[3]; day 7, 30 nmol intrathecal, at peak of effect
  effect on tactile allodynia: reversed
[3]; day 7, intrathecal
  dose producing half-maximum effect on paw withdrawal threshold: 8.1 nmol
[3]; day 7 after nerve injury, 30 nmol intrathecal
  paw withdrawal threshold 45 min after injection: 14.6 ± 0.5 g
[3]; day 14, 30 nmol intrathecal, 45 min after injection
  recovery of paw withdrawal threshold: 73%
[3]; day 14, intrathecal
  dose producing half-maximum effect on paw withdrawal threshold: 15.5 nmol
[3]; day 14 after nerve injury, 30 nmol intrathecal
  paw withdrawal threshold 45 min after injection: 11.6 ± 1.3 g
[3]; intrathecal
  motor behaviour following administration: no alteration
[1]; 10 μM
  ATP-evoked increase in 340/360 ratio (fura-2): suppressed
[4]
  biological activity on effects of α,β-methylene ATP: inhibit
[6]; [10]
  effect on allodynia caused by ATP-stimulated microglia: reversed the allodynia
  time of peak increase in paw withdrawal threshold after injection: 45 to 75 min
[6]; 10 μM together with ATP (50 μM) in the microglia pre-incubation
  decrease in paw withdrawal threshold caused by ATP-stimulated microglia: prevented

## 5′-CAGCCCGCCATGGCTC-3′ (phosphorothioate end caps, number of linkages not given here) [P2X4R antisense ODN]
[7]
  level of OX42 immunofluorescence per individual microglia versus mismatch ODN: nor was there a difference
  number of microglia in the dorsal horn versus mismatch ODN: no difference
[3]; [11]
  nerve injury-induced decrease in paw withdrawal threshold compared with mismatch ODN: significantly less
  recovery of paw withdrawal threshold towards the baseline level prior to nerve injury: 47.4±8.3%
[8]
  decrease of P2X4R protein level in spinal cord homogenates versus mismatch ODN: 32.0±4.8%
[9]
  decrease of immunofluorescence intensity of P2X4R protein in individual microglia versus mismatch ODN: 37.1±0.2%

## Nc1ncnc2c1ncn2[C@@H]1O[C@H](COP(=O)(O)OP(=O)(O)OP(=O)(O)O)[C@@H](O)[C@H]1O [ATP, adenosine 5′-triphosphate]
[1]; agonist 50 μM, 10 s
  340/360 emission ratio for fura-2 ([Ca2+]i): transient increase
[6]; normal rats, ATP 50 μM, tested 1, 3 and 5 hr later
  paw withdrawal threshold after intrathecal administration: unaffected

## 5′-ACCGCCGCCAGTGCCT-3′ (DNA, backbone and methylation of C not given here; end-capped with phosphorothioate linkages) [mismatch ODN]
[3]; [11]
  paw withdrawal threshold compared with untreated controls: not different
